Activity calls are given as the source filed them.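 How the source made its calls: active means a tumour-causing dose and a tumour site recorded for mice in at least one sex group; inconclusive means only government mouse studies exist and were judged inadequate; inactive means mouse studies exist but none gave tumours.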
Test system: mouse carcinogenicity bioassay, TD50 from CPDB
Assay: DSSTox (CPDBAS) Carcinogenic Potency Database Summary Mouse Bioassay Results
Description: The Carcinogenic Potency Database (CPDB) is a unique and widely used international resource of the results of over 6500 chronic, long-term animal cancer tests on over 1500 chemical substances. The CPDB provides easy access to the bioassay literature, with qualitative and quantitative analyses of both positive and negative experiments that have been published over the past 50 years in the general literature and by the National Cancer Institute/National Toxicology Program. The CPDB standardizes the diverse literature of cancer bioassays that vary widely in protocol, histopathological examination and nomenclature, and in the published author's choices of what information to provide in their papers. Results are reported in the CPDB for tests in rats, mice, hamsters, dogs, and nonhuman primates, and are based on the most positive result among all experiments for each sex-species. The DSSTox CPDBAS (all species) file incorporates data from the CPDB Summary Tables for the full list of over 1500 chemical substances tested in at least one species. Summary bioassay results for Mouse (TD50, tumor sites, male, female, both sexes) are provided in the CPDB Summary Tables and the DSSTox CPDBAS file for over 1000 chemical substances.
TD50 is a standardized quantitative measure of carcinogenic potency (analogous to an LD50) and is reported in the CPDB Summary Table for each species. Activity Score for actives is computed by mapping of LOG10 (1/TD50_Mouse_mmol) activity values spanning range [MIN, MAX] onto Integer 1-100 Activity Score range, where 100 is highest potency and 1 is lowest: Activity Score = 100 * INTEGER[(log10(1/Activity) - MIN)/(MAX […] MIN)]. If activity is reported but no TD50_Mouse_mmol value is computed, such as for a mixture, the Activity Score is assigned the activity value "50". […] Target sites are reported for each sex-species group with a positive result in the CPDB on the basis of a positive author's opinion for the particular site, using all results from both the general literature and NCI/NTP bioassays. If a chemical has two or more target sites listed, the results may be from different experiments, and a single site may be a target organ in more than one experiment, as well. Blank entry in TargetSites field indicates no results reported.

[1] = TD50_Mouse_Note: no positive results, TargetSites_Mouse_Female: no positive results
[2] = TargetSites_Mouse_Female: no positive results
[3] = TD50_Mouse_Note: TD50 is harmonic mean of more than one positive test, TargetSites_Mouse_Female: no positive results
[4] = TD50_Mouse_Note: TD50 is harmonic mean of more than one positive test, TargetSites_Mouse_Female: liver

`CCCCC(CC)COP(=O)(OCC(CC)CCCC)OCC(CC)CCCC` (stereo unspecified) gave a Potency (TargetSites_Mouse_Female: liver) of 5.89 mmol/kg/day.
In the case of `NC(=S)Nc1ccccc1`, the outcome [1] is reported as “inactive; no positive results”.
`C=CCN(N)CC=C` was tested, and the Potency (TD50_Mouse_Note: TD50 is harmonic mean of more than one positive test, TargetSites_Mouse_Female: lung, stomach) was 0.264 mmol/kg/day.
`ClCC(Cl)CCl` gave a Potency (TD50_Mouse_Note: TD50 is harmonic mean of more than one positive test, TargetSites_Mouse_Female: harderian gland, liver, oral cavity, stomach, uterus) of 0.00593 mmol/kg/day.
With `S=C1NCCN1` the Potency (TD50_Mouse_Note: TD50 is harmonic mean of more than one positive test, TargetSites_Mouse_Female: liver, pituitary gland, thyroid gland) was 0.23 mmol/kg/day.
For `CNN`, the Potency (TD50_Mouse_Note: TD50 is harmonic mean of more than one positive test, TargetSites_Mouse_Female: liver, lung) was 0.164 mmol/kg/day and the Potency (TD50_Mouse_Note: TD50 is harmonic mean of more than one positive test, TargetSites_Mouse_Female: lung) was 0.0189 mmol/kg/day.
In the case of `CCOC(=O)[C@]1(c2ccccc2)CCC=C[C@H]1N(C)C`, the outcome [1] is reported as “inactive; no positive results”.
`O=c1cc(CO)occ1O` was tested, and the Potency (TD50_Mouse_Note: TD50 is harmonic mean of more than one positive test, TargetSites_Mouse_Female: thyroid gland) was 4.63 mmol/kg/day.
In the case of `S=C(NC1CCCCC1)NC1CCCCC1`, the outcome [1] is reported as “inactive; no positive results”.
Work on `CC(C)CCC[C@@H](C)[C@H]1CC[C@H]2[C@@H]3CC=C4C[C@@H](OC(=O)Cc5ccc(N(CCCl)CCCl)cc5)CC[C@]4(C)[C@H]3CC[C@]12C` yielded a Potency (TD50_Mouse_Note: TD50 is harmonic mean of more than one positive test, TargetSites_Mouse_Female: hematopoietic system, lung, myocardium) of 0.000955 mmol/kg/day.
For `CCOC(N)=O`, the Potency (TD50_Mouse_Note: TD50 is harmonic mean of more than one positive test, greater than ten-fold variation among TD50 values for positive res, TargetSites_Mouse_Female: lung) was 0.19 mmol/kg/day.
For `Cc1ccccc1`, the outcome [1] was “inactive; no positive results”.
In the case of `CC(=O)N[C@@H](CC(C)C)C(=O)N[C@@H](CC(C)C)C(=O)N[C@H](C=O)CCCN=C(N)N`, the Potency [2] is reported as 0.131 mmol/kg/day.
`NNCCO` was tested, and the Potency [3] was 0.00522 mmol/kg/day.
`C=CF` gave a Potency (TD50_Mouse_Note: TD50 is harmonic mean of more than one positive test, TargetSites_Mouse_Female: harderian gland, lung, mammary gland, vascular system) of 0.176 mmol/kg/day.
`Cc1cc(C(C)(C)C)c(O)c(C(C)(C)C)c1` gave a Potency [3] of 2.96 mmol/kg/day.
In the case of `CN(C)N=O`, the Potency (TD50_Mouse_Note: TD50 is harmonic mean of more than one positive test, TargetSites_Mouse_Female: lung, nervous system) is reported as 0.00255 mmol/kg/day.
With `CN(C)CCOC(c1ccccc1)c1ccccc1` the outcome [1] was “inactive; no positive results”.
`OCCN(CCO)C(=S)S` was tested, and the Potency [3] was 0.172 mmol/kg/day.
For `O.O.O.O.O=C([O-])CC(O)(CC(=O)[O-])C(=O)[O-].[Fe+3]`, the outcome [1] was “inactive; no positive results”.
In the case of `CC1=C[C@H]2O[C@@H]3[C@H](O)[C@@H](O)[C@@](C)(C34CO4)[C@@]2(CO)[C@H](O)C1=O` (stereo partly specified), the outcome [1] is reported as “inactive”.
`Oc1cccc2cccnc12.Oc1cccc2cccnc12.[Cu]` was tested, and the outcome [1] was “inactive; no positive results”.
With `Clc1ccc2c(c1)C(c1ccccc1)=NCc1nncn1-2` the outcome [1] was “inactive; no positive results”.
For `CCN(CC)C(=S)S[Se](SC(=S)N(CC)CC)(SC(=S)N(CC)CC)SC(=S)N(CC)CC`, the Potency [2] was 0.00222 mmol/kg/day.
In the case of `CCCOC(=O)c1cc(O)c(O)c(O)c1`, the outcome [1] is reported as “inactive; no positive results”.
For `CC[C@H]1OC(=O)C[C@@H](O)[C@H](C)[C@@H](O[C@@H]2O[C@H](C)[C@@H](O[C@H]3C[C@@](C)(O)[C@@H](O)[C@H](C)O3)[C@H](N(C)C)[C@H]2O)[C@@H](CC=O)C[C@@H](C)C(=O)/C=C/C(C)=C/C1CO[C@@H]1O[C@H](C)[C@@H](O)[C@@H](OC)[C@H]1OC` (stereo partly specified), the outcome [1] was “inactive; no positive results”.
For `C#C[C@]1(O)CC[C@H]2[C@@H]3CCC4=C(CCC(=O)C4)[C@H]3CC[C@@]21C`, the outcome (TD50_Mouse_Note: TD50 is harmonic mean of more than one positive test, greater than ten-fold variation among TD50 values for positive res, TargetSites_Mouse_Female: pituitary gland) was “active; no positive results” and the outcome [1] was “inactive; no positive results”.
With `[Cl-].[Cl-].[Hg+2]` the outcome [1] was “inactive; no positive results”.
For `CCCCCNN`, the Potency (TargetSites_Mouse_Female: lung, vascular system) was 0.0423 mmol/kg/day.
In the case of `O=C(O)COc1cc(Cl)c(Cl)cc1Cl`, the outcome [1] is reported as “inactive; no positive results”.
In the case of `C[C@@H]1CCC[C@H](C)N1CCCC(O)(c1ccccc1)c1ccccn1` (stereo partly specified), the outcome [1] is reported as “inactive; no positive results”.
`CC(C)(CCCOc1ccc(OCCCC(C)(C)C(=O)O)c(-c2ccccc2)c1)C(=O)O` was tested, and the Potency [4] was 0.125 mmol/kg/day.
In the case of `O=[N+]([O-])c1cc(N(CCO)CCO)ccc1NCCO`, the outcome [1] is reported as “inactive; no positive results”.
In the case of `NC(=S)NNC(N)=S`, the outcome [1] is reported as “inactive; no positive results”.
In the case of `O=C(O)c1ccc([N+](=O)[O-])cc1`, the outcome [1] is reported as “inactive; no positive results”.
With `C=CCc1ccc(OC)c(OC)c1` the Potency [4] was 0.108 mmol/kg/day.
`O=[N+]([O-])c1ccc2c3c(cccc13)CC2` was tested, and the Potency (TargetSites_Mouse_Female: liver, ovary) was 0.23 mmol/kg/day.
With `O=C1CCC(=O)O1` the outcome [1] was “inactive; no positive results”.
With `CC1=C(C(=O)OC(C)C)C(c2cccc([N+](=O)[O-])c2)C(C(=O)OC2CN(C(c3ccccc3)c3ccccc3)C2)=C(N)N1` (stereo unspecified) the outcome [1] was “inactive; no positive results”.
